{"source": "paper PMC2073845", "about": "“Tracer Studies of Potential Radiosensitizing Agents” (British Journal of Cancer, 1956)", "key": {"[1]": {"design": "method as in Mitchell, 1955; Marrian and Maxwell, 1956", "settings": "after intravenous injection; ref Mitchell, 1955; Marrian and Maxwell, 1956; cited from earlier work"}, "[2]": {"experiment": "Differential absorption ratio (D.A.R.) of organs of rats carrying a Walker carcinoma after injection of the radio-labelled compound", "source_text": "(§1) OPO3Na2 OPO3Na2 OP03H2 ICOH3 CH3 CH3 131I I 82Br CH3 1311 OPO3Na2 OPO3Na2 OP03H2 I II III METHODS AND MATERIALS Counting.-y-emission from the halogens was the basis of detection. The simple technique of placing samples of the organs under a shielded counter could not be used since variations in the thickness of the organs would vary the sample- counter distance, leading to considerable counting errors. This type of error was reduced by locating the sample on a thin aluminium tray midway between two G-10-Pb glass-covered Geiger-Muller tubes in copper sheaths placed 10 cm. apart in a castle of 2 inch lead and connected in parallel to the same scaler. The 50 D. H. MARRIAN AND D. R. MAXWELL sensitivity of the arrangement was about 9000 c.p.m./,tC 52Br. Samples and backgrounds were counted to a standard error of 5 per cent or less. […] The hydroscopic salt (II) was dissolved in 0 9 per cent saline and the concentration determined by ultraviolet spectroscopy (absorption maxima at 232m,u. (M = 70,000) and 290 m,u. (M = 5,800) in 0-01N- hydrochloric acid). […] The purity of the solution was determined by paper electrophoresis at pH 7 (Markham and Smith, 1952). This clearly separated the organic compound from iodide ion, the former being detected by ultraviolet photography and the latter by spraying with starch solution and exposure to chlorine vapour. […]"}, "[3]": {"settings": "for injected compound in urine: 5 mg i.v.", "source_text": "OPO3Na2 OPO3Na2 OP03H2 ICOH3 CH3 CH3 131I I 82Br CH3 1311 OPO3Na2 OPO3Na2 OP03H2 I II III METHODS AND MATERIALS Counting.-y-emission from the halogens was the basis of detection. The simple technique of placing samples of the organs under a shielded counter could not be used since variations in the thickness of the organs would vary the sample- counter distance, leading to considerable counting errors. This type of error was reduced by locating the sample on a thin aluminium tray midway between two G-10-Pb glass-covered Geiger-Muller tubes in copper sheaths placed 10 cm. apart in a castle of 2 inch lead and connected in parallel to the same scaler. The 50 D. H. MARRIAN AND D. R. MAXWELL sensitivity of the arrangement was about 9000 c.p.m./,tC 52Br. Samples and backgrounds were counted to a standard error of 5 per cent or less. […] The hydroscopic salt (II) was dissolved in 0 9 per cent saline and the concentration determined by ultraviolet spectroscopy (absorption maxima at 232m,u. (M = 70,000) and 290 m,u. (M = 5,800) in 0-01N- hydrochloric acid). […] Exposure to chlorine vapour caused red spots of bromofluoroscein to appear on a yellow background. […] The iodinated compound (III), was dissolved in 0 9 per cent saline and neutralised by addition of sodium hydroxide solution. The purity of the solution was determined by paper electrophoresis at pH 7 (Markham and Smith, 1952). This clearly separated the organic compound from iodide ion, the former being detected by ultraviolet photography and the latter by spraying with starch solution and exposure to chlorine vapour. […] It was dissolved in 0 9 per cent saline before injection. […] C. for 4 hours at pH 4, 6, 7 and 9 and the reaction mixtures examined by paper electrophoresis. […] Animal experiments Rats carring a Walker carcinoma were used as previously described (Marrian and Maxwell, 1956). […] The radioactivity of these planchettes when the organs were being counted was used to calculate the differential absorption ratio (D.A.R.), (Marrian and Maxwell, 1956). In most experiments with the bromo-compound, the time required to count the organ necessitated a decay correction, calculated from the known half-life of 82Br-bromine (36 ? 0*2 hours). […] Upper curve: single counter. Lower curve: double counter. Ordinate: Percentage error in the count."}, "[4]": {"experiment": "Radioactivity in blood, plasma and urine as percentage of injected dose, tumour-bearing rats", "source_text": "OPO3Na2 OPO3Na2 OP03H2 ICOH3 CH3 CH3 131I I 82Br CH3 1311 OPO3Na2 OPO3Na2 OP03H2 I II III METHODS AND MATERIALS Counting.-y-emission from the halogens was the basis of detection. The simple technique of placing samples of the organs under a shielded counter could not be used since variations in the thickness of the organs would vary the sample- counter distance, leading to considerable counting errors. This type of error was reduced by locating the sample on a thin aluminium tray midway between two G-10-Pb glass-covered Geiger-Muller tubes in copper sheaths placed 10 cm. apart in a castle of 2 inch lead and connected in parallel to the same scaler. The 50 D. H. MARRIAN AND D. R. MAXWELL sensitivity of the arrangement was about 9000 c.p.m./,tC 52Br. Samples and backgrounds were counted to a standard error of 5 per cent or less. […] The hydroscopic salt (II) was dissolved in 0 9 per cent saline and the concentration determined by ultraviolet spectroscopy (absorption maxima at 232m,u. (M = 70,000) and 290 m,u. (M = 5,800) in 0-01N- hydrochloric acid). […] Exposure to chlorine vapour caused red spots of bromofluoroscein to appear on a yellow background. […] The iodinated compound (III), was dissolved in 0 9 per cent saline and neutralised by addition of sodium hydroxide solution. The purity of the solution was determined by paper electrophoresis at pH 7 (Markham and Smith, 1952). This clearly separated the organic compound from iodide ion, the former being detected by ultraviolet photography and the latter by spraying with starch solution and exposure to chlorine vapour. […] It was dissolved in 0 9 per cent saline before injection. […] C. for 4 hours at pH 4, 6, 7 and 9 and the reaction mixtures examined by paper electrophoresis. […] The radioactivity of these planchettes when the organs were being counted was used to calculate the differential absorption ratio (D.A.R.), (Marrian and Maxwell, 1956). In most experiments with the bromo-compound, the time required to count the organ necessitated a decay correction, calculated from the known half-life of 82Br-bromine (36 ? 0*2 hours). […]"}, "chick fibroblasts": {"test_system": "chick fibroblasts", "settings": "cited from earlier work"}, "[5]": {"experiment": "Attempted exchange reactions with ammonium 82Br-bromide in vitro", "assay_type": "physicochemical", "settings": "reactants in molar ratio; lower detection limit 2.0 per cent", "source_text": "as §1"}}, "note": "Where two headings read alike, the source gives them in different places.", "data": [{"smiles": "Cc1cc(OP(=O)(O)O)c2ccccc2c1OP(=O)(O)O", "note": "[Synkavit, tetrasodium 2-methyl-I: 4-naphthohydro-quinone diphosphate]", "values": [{"measurement": "accumulation in tumour tissue", "setting": "[1]", "result": "can accumulate in tumour tissue for short periods"}]}, {"smiles": "Cc1c([82Br])c(OP(=O)([O-])[O-])c2ccccc2c1OP(=O)([O-])[O-].[Na+].[Na+].[Na+].[Na+]", "note": "[II, tetrasodium 2-methyl-3-82Br-bromo-I: 4-naphthohydroquinone diphosphate]", "values": [{"measurement": "D.A.R. of the tumour compared with other organs", "setting": "[2]; 1 mg i.v., only exceeded by stomach and contents", "result": "consistently higher than any of the above organs"}, {"measurement": "form of radioactivity in stomach contents (paper electrophoresis)", "setting": "[3]; 6 hours after injection of 10 mg", "result": "present as bromide ion"}, {"measurement": "form of radioactivity in urine (paper chromatography)", "setting": "[3]; rat given 5 mg intravenously", "result": "most of the radioactivity was present as bromide ion"}, {"measurement": "injected compound in urine", "setting": "[3]; urine collected from 0 to 2 hours", "result": "small amounts"}, {"measurement": "injected compound in urine", "setting": "[3]; urine collected from 2 to 6 hours after injection", "result": "None of the injected compound could be detected"}, {"measurement": "plasma share of the radioactivity of the whole blood", "setting": "[4]; 1 mg i.v.", "result": "~67", "unit": "per cent"}, {"measurement": "radioactivity associated with the blood", "setting": "[4]; after 30 minutes, 1 mg i.v.", "result": "about 15 per cent of the injected dose"}, {"measurement": "radioactivity excreted in the urine", "setting": "[4]; of a 1 mg (10.6 uC) dose, during 48 hours", "result": "30-35 per cent"}, {"measurement": "antimitotic properties", "setting": "chick fibroblasts; ref Friedmann, Marrian and Simon-Reuss, 1952", "result": "established"}]}, {"smiles": "Cc1c(Br)c(OP(=O)([O-])[O-])c2ccccc2c1OP(=O)([O-])[O-].[Na+].[Na+].[Na+].[Na+]", "note": "[Tetrasodium 2-methyl-3-bromo-1 4-naphthohydroquinone diphosphate]", "values": [{"measurement": "exchange with ammonium 82Br-bromide", "setting": "[5]", "result": "no exchange could be detected"}]}, {"smiles": "Cc1c(C)c(OP(=O)(O)O)c([131I])c([131I])c1OP(=O)(O)O", "note": "[III, 2: 3-dimethyl-5: 6-di-1311-iodo-I: 4-benzohydroquinone diphosphate]", "values": [{"measurement": "radioactivity of the thyroid", "setting": "[2]; 10 mg", "result": "no more radioactivity than the surrounding tissue"}, {"measurement": "form of the label half an hour after injection", "setting": "[3]; 10 mg, by comparison with reported iodide distribution", "result": "much of the label derived from compound (III) is present as free iodide ion"}, {"measurement": "iodide ion in stomach contents and urine (paper electrophoresis)", "setting": "[3]; 10 mg, first 3 hours", "result": "contain large amounts of iodide ion"}, {"measurement": "antimitotic properties", "setting": "chick fibroblasts; same test, ref Simon-Reuss, unpublished", "result": "inactive"}]}]}
